Experimental findings from BindingDB's records for doi:10.1021/jm00090a003 (Universit&#233, 1992) are described below.

Assay [1] concerns the target Calcitonin gene-related peptide (CGRP) receptor binding sites. The assay can be described thus: ChEBML_42602.
The target of assay [2] is Calcitonin gene-related peptide type 1 receptor (Cavia porcellus). Nature of the assay: Binding affinity against [125I]-hCalcitonin gene-related peptide type receptor binding sites in guinea pig atrium membrane.

“And” between values parts separate entries of the source, which are not always exact repeats. Equal values may be shown once.

As to H-VTHRAAGLLSRSGGVVKNNFVPTNVGSKAF-NH2, the results for the IC50 in assay [1] and in assay [2] were 0.0145 µM and 0.011 µM, respectively.

On to `CC(C)C[C@H](NC(=O)CNC(=O)[C@H](C)NC(=O)[C@H](CC(C)C)NC(=O)[C@H](CCCN=C(N)N)NC(=O)[C@@H](N)Cc1c[nH]cn1)C(=O)N[C@@H](CC(C)C)C(=O)N[C@@H](CO)C(=O)N[C@@H](CCCN=C(N)N)C(=O)N[C@@H](CO)C(=O)NCC(=O)NCC(=O)N[C@H](C(=O)N[C@H](C(=O)N[C@@H](CCCCN)C(=O)N[C@@H](CC(N)=O)C(=O)N[C@@H](CC(N)=O)C(=O)N[C@@H](Cc1ccccc1)C(=O)N[C@H](C(=O)N1CCC[C@H]1C(=O)N[C@H](C(=O)N[C@@H](CC(N)=O)C(=O)N[C@H](C(=O)NCC(=O)N[C@@H](CO)C(=O)N[C@@H](CCCCN)C(=O)N[C@@H](C)C(=O)N[C@@H](Cc1ccccc1)C(N)=O)C(C)C)[C@@H](C)O)C(C)C)C(C)C)C(C)C`, for which, in assay [1], the IC50 worked out at 0.009 µM. On to H-VTHALAGLLSRSGGVVKNNFVPTNVGSKAF-NH2, for which the IC50 in assay [2] was 0.022 µM and 0.025 µM.

Usually IC50 stands for the concentration that inhibits the measured activity by half.
